Like-named read-outs stand apart in the source and are kept apart here.
Experiments:
human D3 receptor = human D3 receptor (Homo sapiens (Human), UniProt P35462); experiment: Radioligand binding assay, [3H]-spiperone, human D3 receptor; settings: membranes of HEK293 EBNA cells expressing human D3; 0.5 nM [3H]-spiperone
Summary of the method: (§1)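 Membranes from transiently transfected HEK293 EBNA cells were incubated 1 h at RT with ten compound concentrations (10 μM-0.1 nM) and radioligand: 0.5 nM [3H]-spiperone for D3 (Tris/NaCl/Mg/Ca buffer, pH 7.4) or 1.1 nM [3H]-ketanserin for 5-HT2A (Tris/MgCl2/EGTA, pH 7.4).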

human 5-HT2A receptor = human 5-HT2A receptor (Homo sapiens (Human), UniProt P28223); experiment: Radioligand binding assay, [3H]-ketanserin, human 5-HT2A receptor
Summary of the method: as §1

human D2 receptor = human D2 receptor (Homo sapiens (Human), UniProt P14416); experiment: Radioligand binding assay, [3H]-spiperone, human D2 receptor; settings: membranes of HEK293 EBNA cells expressing human D2; 0.7 nM [3H]-spiperone
Summary of the method: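 Membranes from HEK293 EBNA cells transiently expressing human D2 were incubated 1 h at RT with ~0.7 nM [3H]-spiperone and ten compound concentrations (10 μM–0.1 nM) in Tris buffer with NaCl, MgCl2, KCl, CaCl2, EDTA, pH 7.4.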

[1] = membranes of HEK293 EBNA cells expressing human 5-HT2A, 1.1 nM [3H]-ketanserin

Sequence of human 5-HT2A receptor (P28223 whole entry): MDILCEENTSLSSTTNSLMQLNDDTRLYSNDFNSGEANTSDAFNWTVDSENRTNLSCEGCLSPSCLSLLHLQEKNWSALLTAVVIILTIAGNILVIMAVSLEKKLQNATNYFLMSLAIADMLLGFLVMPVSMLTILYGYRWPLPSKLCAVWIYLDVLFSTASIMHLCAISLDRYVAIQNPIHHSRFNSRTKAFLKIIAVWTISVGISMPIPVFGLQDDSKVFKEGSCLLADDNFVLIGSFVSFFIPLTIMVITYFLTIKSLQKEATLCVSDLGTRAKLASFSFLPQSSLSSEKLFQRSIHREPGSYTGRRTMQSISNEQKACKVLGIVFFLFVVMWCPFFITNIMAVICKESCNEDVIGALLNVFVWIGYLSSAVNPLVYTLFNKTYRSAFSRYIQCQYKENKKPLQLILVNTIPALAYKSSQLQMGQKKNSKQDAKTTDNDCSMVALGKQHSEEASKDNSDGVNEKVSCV
Sequence of human D2 receptor (P14416 whole entry): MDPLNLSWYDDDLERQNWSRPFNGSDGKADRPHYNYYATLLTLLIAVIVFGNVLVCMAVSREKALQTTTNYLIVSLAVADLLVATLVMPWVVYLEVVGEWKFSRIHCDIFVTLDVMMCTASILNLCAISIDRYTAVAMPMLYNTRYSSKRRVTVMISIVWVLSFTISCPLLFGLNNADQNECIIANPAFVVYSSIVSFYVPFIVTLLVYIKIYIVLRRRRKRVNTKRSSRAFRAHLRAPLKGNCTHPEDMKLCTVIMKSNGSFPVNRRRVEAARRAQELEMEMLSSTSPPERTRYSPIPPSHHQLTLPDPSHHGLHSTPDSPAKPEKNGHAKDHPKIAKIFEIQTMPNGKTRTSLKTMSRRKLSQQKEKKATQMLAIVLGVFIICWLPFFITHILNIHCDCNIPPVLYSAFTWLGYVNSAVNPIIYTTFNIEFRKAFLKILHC
Sequence of human D3 receptor (P35462 whole entry): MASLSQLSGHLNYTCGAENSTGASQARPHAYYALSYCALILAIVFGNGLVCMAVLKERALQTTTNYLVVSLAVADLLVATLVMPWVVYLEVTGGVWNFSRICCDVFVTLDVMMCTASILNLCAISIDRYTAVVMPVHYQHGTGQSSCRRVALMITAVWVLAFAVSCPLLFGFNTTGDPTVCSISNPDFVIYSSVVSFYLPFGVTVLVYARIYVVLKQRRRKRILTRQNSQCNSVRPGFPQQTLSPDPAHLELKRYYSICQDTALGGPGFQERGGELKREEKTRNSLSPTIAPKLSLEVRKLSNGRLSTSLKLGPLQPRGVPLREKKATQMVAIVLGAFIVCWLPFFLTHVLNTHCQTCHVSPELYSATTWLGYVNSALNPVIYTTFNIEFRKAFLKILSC

Structure (SMILES)	Ki (human D3 receptor) [nM]	Ki (human 5-HT2A receptor; [1]) [nM]	melting point [°C]	Ki (human D2 receptor) [nM]	Ki (human 5-HT2A receptor) [nM]
CC(=O)N[C@H]1CC[C@H](CCN2CCN(c3ncc(C)c4occc34)CC2)CC1 [Example 104, trans-N-(4-{2-[4-(7-Methyl-furo[3,2-c]pyridin-4-yl)-piperazin-1-yl]-ethyl}-cyclohexyl)-acetamide]	21.5	13.7	208	1460	–
Cc1cnc(N2CCN(CC[C@H]3CC[C@H](NC(=O)C4CCOCC4)CC3)CC2)c2ccoc12 [Example 105, trans-Tetrahydro-pyran-4-carboxylic acid (4-{2-[4-(7-methyl-furo[3,2-c]pyridin-4-yl)-piperazin-1-yl]-ethyl}-cyclohexyl)-amide]	72.7	–	228	1130	5.67
Cc1cnc(N2CCN(CC[C@H]3CC[C@H](NC(=O)CC4CCOCC4)CC3)CC2)c2ccoc12 [Example 106, trans-N-(4-{2-[4-(7-Methyl-furo[3,2-c]pyridin-4-yl)-piperazin-1-yl]-ethyl}-cyclohexyl)-2-(tetrahydro-pyran-4-yl)-acetamide]	38	11.7	205.5	2720	–
COCCC(=O)N[C@H]1CC[C@H](CCN2CCN(c3ncc(C)c4occc34)CC2)CC1 [Example 107, trans-3-Methoxy-N-(4-{2-[4-(7-methyl-furo[3,2-c]pyridin-4-yl)-piperazin-1-yl]-ethyl}-cyclohexyl)-propionamide]	30	12	177	2470	–
CC(=O)N[C@H]1CC[C@H](CCN2CCN(c3ncc(C)c4c3CCO4)CC2)CC1 [Example 108, trans-N-(4-{2-[4-(7-Methyl-2,3-dihydro-furo[3,2-c]pyridin-4-yl)-piperazin-1-yl]-ethyl}-cyclohexyl)-acetamide]	48.2	67.5	196.5	2310	–
Cc1cnc(N2CCN(CC[C@H]3CC[C@H](NC(=O)C4CCOCC4)CC3)CC2)c2c1OCC2 [Example 109, Tetrahydro-pyran-4-carboxylic acid trans-(4-{2-[4-(7-methyl-2,3-dihydro-furo[3,2-c]pyridin-4-yl)-piperazin-1-yl]-ethyl}-cyclohexyl)-amide]	98.7	19.7	223.5	4510	–
Cc1cnc(N2CCN(CC[C@H]3CC[C@H](NC(=O)CC4CCOCC4)CC3)CC2)c2c1OCC2 [Example 110, trans-N-(4-{2-[4-(7-Methyl-2,3-dihydro-furo[3,2-c]pyridin-4-yl)-piperazin-1-yl]-ethyl}-cyclohexyl)-2-(tetrahydro-pyran-4-yl)-acetamide]	69.4	44	199	2950	–
COCCC(=O)N[C@H]1CC[C@H](CCN2CCN(c3ncc(C)c4c3CCO4)CC2)CC1 [Example 111, trans-3-Methoxy-N-(4-{2-[4-(7-methyl-2,3-dihydro-furo[3,2-c]pyridin-4-yl)-piperazin-1-yl]-ethyl}-cyclohexyl)-propionamide]	46.8	37	163.5	3560	–
COC(CC(=O)N[C@H]1CC[C@H](CCN2CCN(c3nccc4c3CCO4)CC2)CC1)OC [Example 113, trans-N-(4-{2-[4-(2,3-Dihydro-furo[3,2-c]pyridin-4-yl)-piperazin-1-yl]-ethyl}-cyclohexyl)-3,3-dimethoxy-propionamide]	19.3	15.7	220	1380	–
COC(CCC(=O)N[C@H]1CC[C@H](CCN2CCN(c3nccc4c3CCO4)CC2)CC1)OC [Example 114, trans-N-(4-{2-[4-(2,3-Dihydro-furo[3,2-c]pyridin-4-yl)-piperazin-1-yl]-ethyl}-cyclohexyl)-4,4-dimethoxy-butyramide]	68	18.1	205.5	2370	–

— patent publication US8586579B2, “Anellated pyridine compounds” (Hoffmann-La Roche Inc., priority 2010, dated 2013)
